Assay results as given in ChEMBL document CHEMBL1201862, “PubChem BioAssay data set” (2004).
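Compound exposure: 48 hours, 5 concentrations, 96-well plates. GI50 marks 50% less growth.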 The source made the active and inactive calls. Cut-off read from the data, not from the text of the source: active = GI50 up to about 1.1 µM and inactive = higher.

Tests used:
Assay in all cases: NCI-60 cell line screen, 48 h
[1] = system: HT-29
[2] = system: DU-145
[3] = system: SK-MEL-28
[4] = system: T47D
[5] = system: HCT-116
[6] = system: MDA-MB-231
[7] = system: NCI-H460
[8] = system: A498
[9] = system: UACC-62
[10] = system: A549
[11] = system: SF-295
[12] = system: OVCAR-8
[13] = system: ACHN
[14] = system: LOX IMVI
[15] = system: MDA-MB-435
[16] = system: OVCAR-4
[17] = system: SK-MEL-5
[18] = system: HOP-62
[19] = system: SF-268
[20] = system: Malme-3M

Row | Structure (SMILES) | GI50 [1] | GI50 [2] | GI50 [3] | GI50 [4] | GI50 [5] | GI50 [6] | GI50 [7] | GI50 [8] | GI50 [9] | GI50 [10] | GI50 [11] | GI50 [12] | GI50 [13] | GI50 [14] | GI50 [15] | GI50 [16] | GI50 [17] | GI50 [18] | GI50 [19] | GI50 [20]
1 | OC(C#Cc1ccccc1)(c1ccccc1)c1ccccc1 | 26.7 µM (inactive) | 30.1 µM (inactive) | 51.1 µM (inactive) | 18.9 µM (inactive) | > 100 µM (inactive) | 51.8 µM (inactive) | 20.9 µM (inactive) | 27.1 µM (inactive) | 35.4 µM (inactive) | 21.2 µM (inactive) | 30.3 µM (inactive) | 63.5 µM (inactive) | 39 µM (inactive) | 19 µM (inactive) | 24.3 µM (inactive) | 41.8 µM (inactive) | 19 µM (inactive) | > 100 µM (inactive) | 21.4 µM (inactive) | 24.2 µM (inactive)
2 | COc1nc(C#CCCCC#N)nc(OC)n1 | 24.3 µM (inactive) | 8.93 µM (inactive) | 15.5 µM (inactive) | 35.4 µM (inactive) | 8.79 µM (inactive) | 11.7 µM (inactive) | 26.3 µM (inactive) | 20.7 µM (inactive) | 9.62 µM (inactive) | 15.8 µM (inactive) | 28.2 µM (inactive) | 21.2 µM (inactive) | 8.93 µM (inactive) | 2.08 µM (inactive) | 10.4 µM (inactive) | 3.82 µM (inactive) | 13.3 µM (inactive) | 24.2 µM (inactive) | 27.3 µM (inactive) | 13.4 µM (inactive)
3 | Cc1cc(-c2nc3cc(F)ccc3s2)ccc1NC(=O)C(C)N (stereo not drawn) | 4.12 µM (inactive) | 4.42 µM (inactive) | 5.25 µM (inactive) | 0.0847 µM (active) | 3.29 µM (inactive) | 3.77 µM (inactive) | 0.955 µM (active) | 3.77 µM (inactive) | 4.02 µM (inactive) | 3.77 µM (inactive) | 3.82 µM (inactive) | 4.54 µM (inactive) | 3.73 µM (inactive) | 4.42 µM (inactive) | 4.81 µM (inactive) | 1.02 µM (active) | 9.84 µM (inactive) | 3.97 µM (inactive) | 4.53 µM (inactive) | 15.2 µM (inactive)
4 | CC(C)NCC(O)c1ccc(OCc2ccccc2)c(OCc2ccccc2)c1-c1ccccc1 (stereo not drawn) | 1.66 µM (inactive) | 1.75 µM (inactive) | 1.76 µM (inactive) | 2.74 µM (inactive) | 1.79 µM (inactive) | 1.69 µM (inactive) | 1.79 µM (inactive) | 2.49 µM (inactive) | 1.41 µM (inactive) | 1.72 µM (inactive) | 2.05 µM (inactive) | 1.73 µM (inactive) | 1.68 µM (inactive) | 3.07 µM (inactive) | 1.79 µM (inactive) | 1.89 µM (inactive) | 1.25 µM (inactive) | 1.79 µM (inactive) | 2.93 µM (inactive) | 1.77 µM (inactive)
5 | COc1ccc(NC(=O)CC(=O)n2nc(-c3ccccc3)c(/N=N/c3ccc(C)cc3)c2-c2ccccc2)cc1 | > 88.3 µM (inactive) | > 59.7 µM (inactive) | > 91.6 µM (inactive) | 36.1 µM (inactive) | 34.1 µM (inactive) | 25.6 µM (inactive) | 35.3 µM (inactive) | > 49.3 µM (inactive) | 27.9 µM (inactive) | 44 µM (inactive) | 23.8 µM (inactive) | 21.7 µM (inactive) | 32.5 µM (inactive) | 38.8 µM (inactive) | > 100 µM (inactive) | 27.5 µM (inactive) | > 65.2 µM (inactive) | 10.4 µM (inactive) | 21.6 µM (inactive) | 31.5 µM (inactive)
6 | CC12CP(=O)(O)CC1C2(Cl)Cl (stereo not drawn) | > 100 µM (inactive) | > 100 µM (inactive) | > 100 µM (inactive) | > 100 µM (inactive) | > 100 µM (inactive) | > 100 µM (inactive) | > 100 µM (inactive) | > 100 µM (inactive) | > 100 µM (inactive) | > 100 µM (inactive) | > 100 µM (inactive) | > 100 µM (inactive) | > 100 µM (inactive) | > 100 µM (inactive) | > 100 µM (inactive) | > 100 µM (inactive) | > 100 µM (inactive) | > 100 µM (inactive) | > 100 µM (inactive) | > 100 µM (inactive)
7 | CCC1C(NC(=O)OC)C(=O)N1[C@@H](C)c1ccccc1 (stereo partly drawn) | > 100 µM (inactive) | > 100 µM (inactive) | > 100 µM (inactive) | > 100 µM (inactive) | > 100 µM (inactive) | > 100 µM (inactive) | > 100 µM (inactive) | > 100 µM (inactive) | > 100 µM (inactive) | – | > 100 µM (inactive) | > 100 µM (inactive) | > 100 µM (inactive) | > 100 µM (inactive) | > 100 µM (inactive) | > 100 µM (inactive) | > 100 µM (inactive) | > 100 µM (inactive) | > 100 µM (inactive) | > 100 µM (inactive)
8 | O=C(O)[C@@H]1C[C@@H](O)CN1C(=O)OCc1ccccc1 | > 100 µM (inactive) | > 100 µM (inactive) | > 100 µM (inactive) | > 100 µM (inactive) | > 100 µM (inactive) | > 100 µM (inactive) | > 100 µM (inactive) | > 100 µM (inactive) | > 100 µM (inactive) | > 100 µM (inactive) | > 100 µM (inactive) | > 100 µM (inactive) | > 100 µM (inactive) | > 100 µM (inactive) | > 100 µM (inactive) | > 100 µM (inactive) | > 100 µM (inactive) | > 100 µM (inactive) | > 100 µM (inactive) | > 100 µM (inactive)
9 | C(#C[C@@]12CCC[C@@H]1NCO2)c1ccc2c(c1)OCO2 | 32.2 µM (inactive) | > 100 µM (inactive) | 35.6 µM (inactive) | 58.2 µM (inactive) | – | > 100 µM (inactive) | 50.9 µM (inactive) | > 100 µM (inactive) | 78.3 µM (inactive) | > 100 µM (inactive) | 50.6 µM (inactive) | 60.8 µM (inactive) | 65 µM (inactive) | 46.6 µM (inactive) | 61.1 µM (inactive) | 85.9 µM (inactive) | 33.3 µM (inactive) | 87.3 µM (inactive) | 65.2 µM (inactive) | 28.1 µM (inactive)
10 | COC1C(O)C(C)OC(OC2C(Oc3cccc4c(O)c5c(=O)oc6ccc(C)c7c(=O)oc(c34)c5c67)OC(C)C(O)C2O)C1O (stereo not drawn) | 2.63 µM (inactive) | 6.65 µM (inactive) | 1.6 µM (inactive) | 0.968 µM (active) | 0.731 µM (active) | 1.67 µM (inactive) | 2.26 µM (inactive) | 2.04 µM (inactive) | 1.17 µM (inactive) | 6.14 µM (inactive) | 1.29 µM (inactive) | 1.15 µM (inactive) | 4.98 µM (inactive) | 1.14 µM (inactive) | 2.07 µM (inactive) | 6.24 µM (inactive) | 1.59 µM (inactive) | 1.77 µM (inactive) | 0.904 µM (active) | 1.35 µM (inactive)
